The values that follow come from patent US7897769B2, “Intermediates for fluorinated dihydrotetrabenazine ether imaging agents and probes” (General Electric Company, priority 2007, dated 2011).

This assay has as its target T1, VMAT-2 (Rattus norvegicus, UniProt Q01827).
T1 construct: Novascreen Biosciences Corporation (contract assay provider) protocol Cat. No. 100-0751
The assay is described as follows: VMAT-2 binding affinity measurement (Novascreen protocol Cat. No. 100-0751). Particulars: for Ki: VMAT-2 binding affinity; for binding affinity for VMAT-2 (in words): relative to a DTBZ control. Here is the method:
VMAT-2 binding affinity measurements were carried out by Novascreen Biosciences Corporation (Hanover, Md., USA) using protocol Cat. No. 100-0751. Novascreen, Inc. is a commercial provider of biological assays for the pharmaceutical industry.

The structures appear in SMILES notation.

For orientation: Ki means a measure of affinity in units of concentration, obtained from inhibition or displacement. Higher therefore signals weaker binding.

T1 sequence (Q01827 whole entry): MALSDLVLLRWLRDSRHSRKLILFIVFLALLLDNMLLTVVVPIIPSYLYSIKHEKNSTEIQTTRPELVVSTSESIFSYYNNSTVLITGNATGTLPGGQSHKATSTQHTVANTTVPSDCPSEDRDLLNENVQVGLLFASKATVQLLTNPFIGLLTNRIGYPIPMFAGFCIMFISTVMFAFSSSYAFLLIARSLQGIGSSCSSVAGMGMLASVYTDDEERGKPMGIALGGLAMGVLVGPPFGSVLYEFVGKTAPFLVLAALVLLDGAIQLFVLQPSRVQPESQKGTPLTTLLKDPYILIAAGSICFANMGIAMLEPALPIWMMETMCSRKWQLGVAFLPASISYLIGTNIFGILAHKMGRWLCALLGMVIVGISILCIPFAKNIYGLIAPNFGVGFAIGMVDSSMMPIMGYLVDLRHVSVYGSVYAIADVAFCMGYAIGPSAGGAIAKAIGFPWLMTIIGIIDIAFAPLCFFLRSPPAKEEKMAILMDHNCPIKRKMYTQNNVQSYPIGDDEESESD

For `COc1cc2c(cc1OC)[C@H]1C[C@@H](OCCCF)[C@H](CC(C)C)CN1CC2` [Compound 23], affinity was put at a Ki of 6.4 nM and the “binding affinity for VMAT-2 (in words)” value is reported as “very high binding affinity”.
On to `COc1cc2c(cc1OC)[C@H]1C[C@@H](OCCF)[C@H](CC(C)C)CN1CC2` [Compound 22], for which the inhibition constant Ki was 3.2 nM and the “binding affinity for VMAT-2 (in words)” value is “very high binding affinity”.
